# Test results from ChEMBL document CHEMBL1131503, “Design and synthesis of enantiomers of 3,5-dinitro-o-tyrosine: alpha-amino-3-hydroxy-5-methyl-4-isoxazolepropanoic acid (AMPA) receptor antagonists” (J Med Chem, 1998).
# Molecular target: Glutamate receptor ionotropic, AMPA (Rattus norvegicus) (UniProt P19491+P19492+P19493+P19490)
# Test: The compound was tested for the % displacement of [3H]AMPA binding to Ionotropic glutamate receptor AMPA in rat brain membranes at a concentration of 100 uM
# Type: cell membranes
row,Compound,Displacement [%]
1,COc1c(CC(NC(=O)OC(C)(C)C)C(=O)O)cc([N+](=O)[O-])cc1[N+](=O)[O-] (centres undefined),26
2,N[C@H](Cc1cc([N+](=O)[O-])cc([N+](=O)[O-])c1O)C(=O)O,58
3,NC(Cc1cc([N+](=O)[O-])cc([N+](=O)[O-])c1O)C(=O)O (centres undefined),76
4,N[C@@H](Cc1cc([N+](=O)[O-])cc([N+](=O)[O-])c1O)C(=O)O,78
5,NC(Cc1ccccc1OCC(=O)O)C(=O)O (centres undefined),20

# Second part, the molecule after the results:
row,Displacement [%],Compound
1,14,CC(=O)NC(Cc1cc([N+](=O)[O-])cc([N+](=O)[O-])c1O)C(=O)O (centres undefined)
2,99,O=[N+]([O-])c1cc2nc(O)c(O)nc2cc1[N+](=O)[O-]
3,66,COc1c(CC(N)C(=O)O)cc([N+](=O)[O-])cc1[N+](=O)[O-] (centres undefined)
4,17,CC(C)(C)OC(=O)NC(Cc1cc([N+](=O)[O-])cc([N+](=O)[O-])c1O)C(=O)O (centres undefined)
